Consider 2 compounds from US20260273033A1, “NOVEL LIPID NANOPARTICLE FORMULATIONS FOR DELIVERY OF NUCLEIC ACIDS” (CureVac SE, priority 2023, published 2026).

The conditions of data set [1]: in vivo; cited from earlier work.
Data set [2] in a line: Immune responses of mRNA vaccines in vivo, DPhyPE versus DSPC as neutral lipid. The conditions noted are these: DPhyPE versus DSPC as neutral lipid in LNP compositions.

For poly(2-methyl-2-oxazoline) [PMOZ], in data set [1], the accumulation in tissue result is recorded as “no significant accumulation in tissue” and the excretion entry is listed as “rapidly excreted by the kidney”.

As to `CC(C)CCCC(C)CCCC(C)CCCC(C)CC(=O)OC[C@H](COP(=O)(O)OCCN)OC(=O)CC(C)CCCC(C)CCCC(C)CCCC(C)C` (stereo partly drawn) [DPhyPE, 1,2-diphytanoyl-sn-glycero-3-phosphoethanolamine], the “immune responses of mRNA vaccines in vivo, neutral lipid comparison” value in data set [2] is “clear advantage over DSPC”.
